The text below walks through data of patent US7247615B2, “Peptide agonists of prostate-specific antigen and uses therefor” (priority 2001, dated 2007).

Several values for one entry are separate records, joined by “and”; a condition that tells them apart may be missing. Equal entries are not always repeated.

Assay [1] has as its system HLA-A2/K^b transgenic mice. Put plainly: Immunization of HLA-A2.1/Kb transgenic mice with peptide-pulsed DCs, IFN-γ production by T cells. The assay is classed as in vivo, mouse. The settings on record: 24 h. The source says:
Transgenic Mice. HLA-A2.1/K^b transgenic mice were kindly provided by Dr. L. Sherman (Scripps Laboratories, San Diego, Calif.). Transgenic mice express the product of the HLA-A2.1/Kb chimeric gene in which the alpha-3 domain of the heavy chain is replaced by mouse H-2/K^b domain, but the HLA-A2.1 alpha-1 and alpha-2 domains are unaltered (A. Vitiello et al., 1991, J. Exp. Med. 173:1007–1015; V. H. Engelhard et al., 1991, J. Immunol. 46:1226–1232).
In Vivo Immunization and Murine T cell Cultures. Three groups of HLA-A2.1/K^b transgenic mice (three mice per group) were immunized s.c. (subcutaneously) in the base of the tail with PSA-3 peptide-pulsed HLA-A2.1/K^b DC, PSA-3A peptide-pulsed DCs from HLA-A2.1/K^b transgenic mice, or DCs only. Peptides were used at a concentration of 50 μg/ml and DCs were used at 1×10^6 cell/mouse/injection. A total of three injections were given to each animal, 2 weeks apart. Mice injected with DCs only were used as controls. Mice were sacrificed 7 days after the last injection, and spleen cells were restimulated in vitro with 25 μg/ml of PSA-3 or PSA3A peptide with irradiated syngeneic spleen cell for 6 days. The cytokine production of these bulk cultures was tested. Peptide-pulsed Jurkat A2 (JA2 K^b) cells were used as stimulator cells. Jurkat 0201 K^b cells are stable transfectants of the human T cell leukemia line, Jurkat, which express the product of HLA-A0201K^b climeric gene (L. A. Sherman et al., 1992, Science 258:815–818).
The HLA-A2/K^b transgenic mouse has been previously reported to aid in the determination of the immunogenicity of HLA-A2 peptides for humans. This in vivo system was thus employed to further analyze and compare the immunogenicity of the PSA-3A peptide with that of the native PSA-3 peptide. DCs from the HLA-A2/K^b transgenic mice were pulsed with either the PSA-3 or the PSA-3A peptide and used to vaccinate HLA-A2b mice. DCs alone (no peptide) were also used as a control vaccine. After three vaccinations at 2-week intervals, T cells were isolated from splenocytes obtained 2 weeks after the last vaccination. The T cells were then incubated with Jurkat A2/K^b cells pulsed with the PSA-3 peptide, the PSA-3A peptide, or no peptide, and production of INF-γ was measured from supernatants after 24 h.

Assay [2] concerns C1R-A2 cells. Put plainly: 111In release cytotoxic assay, peptide-pulsed targets. It is filed as cell-based, human.
Assay [3] addresses T1, HLA-A2 (Homo sapiens, UniProt P04439, D140Y/D185E/D98H/E176V/E277Q/G131W/G231S/I119V/I121R/I166T/I218V/L300P/L318F/N151K/N90K/P208A/P217A/Q86G/Q94H/R138H/R169H/T345S).
T1 construct: endogenous in cells; host or cells: T2A2 / 174CEM-T2 (T2) transport deletion mutant cell line
Put plainly: Stability of peptide-HLA-A2 complex on T2A2 cells (brefeldin A). It is filed as binding. The following applies: 50 μg/ml overnight, 8-h observation period, FIG. 2. As for the experimental part: FIG. 2. Comparison of the stability of the complex of the PSA-3 or PSA-3A peptide with HLA-A2. T2A2 cells were incubated with PSA-3 (open squares) or PSA-3A (closed squares) peptide at a concentration of 50 μg/ml overnight and then washed free of unbound peptide and incubated with brefeldin A to block delivery of new class I molecules to cell surface. At indicated times, cells were stained for the presence of surface peptide-HLA-A2 complexes. Results are expressed in relative % binding as compared to 100% binding at time zero.
Studies were then undertaken to examine the stability of the peptideMHC complex for peptides PSA-3 and PSA-3A. Peptides were incubated with T2A2 cells overnight, washed free of unbound peptide and incubated with brefeldin-A to block delivery of new class I molecules to the cell surface. At various time points, cells were analyzed for the presence of peptide-HLA-A2 complexes. […] Thus, both the ability of the peptide to bind MHC (FIGS. 1A–1B) and the stability (FIG. 2), i.e., avidity of the peptide-MHC complex, are greater for the PSA-3A peptide than the native PSA-3 peptide.

Assay [4] relates to T-PSA-3 cells. The assay is classed as cell-based, human.

With VLSNDVCAQV (SEQ ID NO:3) [PSA-3A], the “Production of IFN-γ” value in assay [1] (label = peptide pulsed on immunizing DCs, Jurkat A2/K^b cells pulsed with PSA-3A (25 μg/ml)) was 6,218.9 pg/ml/10^6 cells; in assay [1] (label = peptide pulsed on immunizing DCs, Jurkat A2/K^b cells with no peptide), less than 37.0 pg/ml/10^6 cells; in assay [1] (label = peptide pulsed on immunizing DCs, T cells restimulated with Jurkat A2/K^b cells pulsed with PSA-3 (25 μg/ml)) it was 5,094.3 pg/ml/10^6 cells; in assay [1] (mice immunized with DCs (no peptide), label = peptide pulsed on Jurkat A2/K^b cells) it was less than 37.0 pg/ml/10^6 cells. Moreover, the “Fold less peptide than PSA-3 peptide necessary for lysis” value in assay [2] (T-PSA-3A line, C1R-A2 targets, E:T 25:1, FIG. 4A) is recorded as “approximately 8 fold”. In addition, the “Fold less peptide required to achieve similar levels of lysis” value in assay [2] (T-PSA-3 line, C1R-A2 targets, E:T 25:1) is “approximately 8 fold”. In assay [2] (peptide 25 μg/ml, IVS-3, two E:T ratios, FIG. 3A), the “Lysis of peptide-pulsed C1R-A2 cells by T-PSA-3A line” value was “to a greater extent than cells pulsed with the PSA-3 peptide”. In addition, the “Lysis of peptide-pulsed C1R-A2 cells by T-PSA-3 line” value in assay [2] (peptide 25 μg/ml, IVS-3, two E:T ratios, FIG. 3B) is given as “to a greater extent than those pulsed with the PSA-3A peptide”. In addition, the “Stability of peptide-HLA-A2 complexes” value in assay [3] is “more stable than PSA-3 complexes”. Further, in assay [4], the “Production of IFN-γ by None (no T cells)” value is less than 13.0 pg/mL. Besides, in assay [4], the “Production of IFN-γ by T-PSA-3” value is 946.6 pg/mL and 915.9 pg/mL.
